Values quoted from earlier work as cited in publication PMC13601336 (Frontiers in Pharmacology, 2026).

Target: T1, UGT1A1 (Homo sapiens, UniProt P22309)
T1 construct: purchased BD Gentest (Woburn, MA, USA)
T1 sequence (P22309 26-533): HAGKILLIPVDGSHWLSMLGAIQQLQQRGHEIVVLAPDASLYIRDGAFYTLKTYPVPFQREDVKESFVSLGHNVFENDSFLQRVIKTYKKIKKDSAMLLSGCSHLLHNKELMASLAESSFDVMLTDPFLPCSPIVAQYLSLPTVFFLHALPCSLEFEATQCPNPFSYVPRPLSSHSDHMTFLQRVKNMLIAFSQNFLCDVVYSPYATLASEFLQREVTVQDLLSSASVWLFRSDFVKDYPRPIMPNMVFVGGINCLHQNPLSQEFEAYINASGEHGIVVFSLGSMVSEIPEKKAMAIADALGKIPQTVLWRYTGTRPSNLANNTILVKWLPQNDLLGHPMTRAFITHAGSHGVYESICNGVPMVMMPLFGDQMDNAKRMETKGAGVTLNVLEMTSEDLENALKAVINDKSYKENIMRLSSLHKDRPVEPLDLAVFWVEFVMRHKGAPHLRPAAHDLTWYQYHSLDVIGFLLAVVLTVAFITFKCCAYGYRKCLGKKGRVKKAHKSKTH
Settings: ref Zhang et al., 2021

Question: For `O=c1c(O)c(-c2ccc(O)c(O)c2)oc2cc(O)cc(O)c12` [Quercetin, quercetin], which Ki is on record?
Answer: 2180 nM
